Measurements: patent US20240166652A1, “MODULATORS OF THE INTEGRATED STRESS PATHWAY” (Calico Life Sciences LLC, priority 2017, published 2024)

System: ATF4 luciferase reporter in HEK293T cells
Assay: ATF4-Luc assay (ATF4 luciferase reporter, tunicamycin-treated HEK293T cells)
Type: cell-based, human
Conditions: Homo sapiens, HEK-293T; HEK293T cells carrying the ATF4 luciferase reporter, 1 μg/mL tunicamycin, 7 hours

SMILES | EC50
O=C(COc1ccc(Cl)c(F)c1)NC12CCC(NC(=O)COc3cccnn3)(CC1)[C@@H](O)C2 [Compound 806, 2-(4-chloro-3-fluorophenoxy)-N-[(3S)-3-hydroxy-4-{2-[(pyridazin-3-yl)oxy]acetamido}bicyclo[2.2.2]octan-1-yl]acetamide] | 0.5 to 2 µM
O=C(CC(=O)c1ccc(Cl)cc1)NC12CCC(NC(=O)COc3ccc(Cl)c(F)c3)(CC1)[C@@H](O)C2 [Compound 807, N-{(3S)-4-[2-(4-chloro-3-fluorophenoxy)acetamido]-3-hydroxybicyclo[2.2.2]octan-1-yl}-3-(4-chlorophenyl)-3-oxopropanamide] | 0.01 to 0.05 µM
O=C(COc1ccc(F)c(OC(F)F)c1)NC12CCC(NC(=O)COc3ccc(Cl)c(F)c3)(CC1)[C@@H](O)C2 [Compound 808, 2-(4-chloro-3-fluorophenoxy)-N-[(2S)-4-{2-[3-(difluoromethoxy)-4-fluorophenoxy]acetamido}-2-hydroxybicyclo[2.2.2]octan-1-yl]acetamide] | < 0.01 µM
O=C(COc1ccc(F)c(F)c1)NC12CCC(NC(=O)COc3cccc(C(F)(F)F)c3)(CC1)[C@@H](O)C2 [Compound 809, 2-(3,4-difluorophenoxy)-N-[(3S)-3-hydroxy-4-{2-[3-(trifluoromethyl)phenoxy]acetamido}bicyclo[2.2.2]octan-1-yl]acetamide] | < 0.01 µM
N[C@H](CC(=O)NC12CC(NC(=O)COc3ccc(Cl)c(F)c3)(C1)C2)Cc1ccccc1 [Compound 810, (3S)-3-amino-N-{3-[2-(4-chloro-3-fluorophenoxy)acetamido]bicyclo[1.1.1]pentan-1-yl}-4-phenylbutanamide] | > 2 µM
O=C(COc1ccc(F)c(F)c1)NC12CCC(NC(=O)COc3ccc(F)cc3)(CC1)[C@@H](O)C2 [Compound 811, 2-(3,4-difluorophenoxy)-N-{(3S)-4-[2-(4-fluorophenoxy)acetamido]-3-hydroxybicyclo[2.2.2]octan-1-yl}acetamide] | < 0.01 µM
O=C(COc1ccc(F)c(F)c1)NC12CCC(NC(=O)COc3ccc(F)c(OC(F)(F)F)c3)(CC1)[C@@H](O)C2 [Compound 812, 2-(3,4-difluorophenoxy)-N-[(3S)-4-{2-[4-fluoro-3-(trifluoromethoxy)phenoxy]acetamido}-3-hydroxybicyclo[2.2.2]octan-1-yl]acetamide] | < 0.01 µM
O=C(COc1ccc(F)c(F)c1)NC12CCC(NC(=O)COc3ccc(Cl)cc3)(CC1)[C@@H](O)C2 [Compound 813, 2-(4-chlorophenoxy)-N-{(2S)-4-[2-(3,4-difluorophenoxy)acetamido]-2-hydroxybicyclo[2.2.2]octan-1-yl}acetamide] | < 0.01 µM
Cc1cc(OCC(=O)NC23CCC(NC(=O)COc4ccc(Cl)c(F)c4)(CC2)[C@@H](O)C3)ccc1F [Compound 814, 2-(4-chloro-3-fluorophenoxy)-N-{(2S)-4-[2-(4-fluoro-3-methylphenoxy)acetamido]-2-hydroxybicyclo[2.2.2]octan-1-yl}acetamide] | < 0.01 µM
Cc1cc(OCC(=O)NC23CCC(NC(=O)COc4ccc(F)c(F)c4)(CC2)[C@@H](O)C3)ccc1F [Compound 815, 2-(3,4-difluorophenoxy)-N-{(2S)-4-[2-(4-fluoro-3-methylphenoxy)acetamido]-2-hydroxybicyclo[2.2.2]octan-1-yl}acetamide] | < 0.01 µM
Cc1cc(OCC(=O)NC23CCC(NC(=O)COc4ccc(Cl)cc4)(CC2)[C@@H](O)C3)ccc1F [Compound 816, 2-(4-chlorophenoxy)-N-{(2S)-4-[2-(4-fluoro-3-methylphenoxy)acetamido]-2-hydroxybicyclo[2.2.2]octan-1-yl}acetamide] | < 0.01 µM
Cc1cc(OCC(=O)NC23CCC(NC(=O)COc4ccc(F)cc4)(CC2)[C@@H](O)C3)ccc1F [Compound 817, 2-(4-fluoro-3-methylphenoxy)-N-{(3S)-4-[2-(4-fluorophenoxy)acetamido]-3-hydroxybicyclo[2.2.2]octan-1-yl}acetamide] | < 0.01 µM
CS(=O)(=O)c1cc(OCC(=O)NC23CCC(NC(=O)COc4ccc(F)c(F)c4)(CC2)[C@@H](O)C3)ccc1F [Compound 818, 2-(3,4-difluorophenoxy)-N-[(2S)-4-{2-[4-fluoro-3-(methanesulfonyl)phenoxy]acetamido}-2-hydroxybicyclo[2.2.2]octan-1-yl]acetamide] | 0.25 to 0.5 µM
CS(=O)(=O)c1cc(OCC(=O)NC23CCC(NC(=O)COc4ccc(F)cc4)(CC2)[C@@H](O)C3)ccc1F [Compound 819, 2-[4-fluoro-3-(methanesulfonyl)phenoxy]-N-{(3S)-4-[2-(4-fluorophenoxy)acetamido]-3-hydroxybicyclo[2.2.2]octan-1-yl}acetamide] | 0.5 to 2 µM
O=C(COc1ccc(F)c(OC(F)(F)F)c1)NC12CCC(NC(=O)COc3ccc(Cl)c(F)c3)(CC1)[C@@H](O)C2 [Compound 820, 2-(4-chloro-3-fluorophenoxy)-N-[(2S)-4-{2-[4-fluoro-3-(trifluoromethoxy)phenoxy]acetamido}-2-hydroxybicyclo[2.2.2]octan-1-yl]acetamide] | < 0.01 µM
O=C(COc1ccc(C(F)(F)F)c(F)c1)NC12CCC(NC(=O)COc3ccc(C(F)(F)F)c(F)c3)(CC1)[C@@H](O)C2 [Compound 821, N,N′-[(2S)-2-hydroxybicyclo[2.2.2]octane-1,4-diyl]bis{2-[3-fluoro-4-(trifluoromethyl)phenoxy]acetamide}] | < 0.01 µM
O=C(COc1ccc(F)c(C(F)(F)F)c1)NC12CCC(NC(=O)COc3ccc(C(F)(F)F)c(F)c3)(CC1)[C@@H](O)C2 [Compound 822, 2-[3-fluoro-4-(trifluoromethyl)phenoxy]-N-[(2S)-4-{2-[4-fluoro-3-(trifluoromethyl)phenoxy]acetamido}-2-hydroxybicyclo[2.2.2]octan-1-yl]acetamide] | < 0.01 µM
O=C(COc1ccc(F)c(C(F)(F)F)c1)NC12CCC(NC(=O)COc3ccc(F)c(C(F)(F)F)c3)(CC1)[C@@H](O)C2 [Compound 823, N,N′-[(2S)-2-hydroxybicyclo[2.2.2]octane-1,4-diyl]bis{2-[4-fluoro-3-(trifluoromethyl)phenoxy]acetamide}] | < 0.01 µM
O=C(COc1cccc(C(F)(F)F)n1)NC12CCC(NC(=O)COc3ccc(Cl)c(F)c3)(CC1)[C@@H](O)C2 [Compound 824, 2-(4-chloro-3-fluorophenoxy)-N-[(2S)-2-hydroxy-4-(2-{[6-(trifluoromethyl)pyridin-2-yl]oxy}acetamido)bicyclo[2.2.2]octan-1-yl]acetamide] | 0.01 to 0.05 µM
O=C(COc1cccc(C(F)(F)F)n1)NC12CCC(NC(=O)COc3ccc(Cl)cc3)(CC1)[C@@H](O)C2 [Compound 825, 2-(4-chlorophenoxy)-N-[(2S)-2-hydroxy-4-(2-{[6-(trifluoromethyl)pyridin-2-yl]oxy}acetamido)bicyclo[2.2.2]octan-1-yl]acetamide] | 0.05 to 0.25 µM
CS(=O)(=O)c1cc(OCC(=O)NC23CCC(NC(=O)COc4ccc(Cl)c(F)c4)(CC2)[C@@H](O)C3)ccc1F [Compound 826, 2-(4-chloro-3-fluorophenoxy)-N-[(2S)-4-{2-[4-fluoro-3-(methanesulfonyl)phenoxy]acetamido}-2-hydroxybicyclo[2.2.2]octan-1-yl]acetamide] | 0.05 to 0.25 µM
O=C(COc1ccc(Cl)c(F)c1)NC12CC(NC(=O)C(CCO)Oc3ccc(Cl)cc3)(C1)C2 (centres unmarked) [Compound 827, N-{3-[2-(4-chloro-3-fluorophenoxy)acetamido]bicyclo[1.1.1]pentan-1-yl}-2-(4-chlorophenoxy)-4-hydroxybutanamide] | 0.05 to 0.25 µM
O=C(COc1ccc(Cl)c(F)c1)NC12CCC(NC(=O)COc3ccc(F)c(C(F)(F)F)c3)(CC1)[C@@H](O)C2 [Compound 828, 2-(4-chloro-3-fluorophenoxy)-N-[(3S)-4-{2-[4-fluoro-3-(trifluoromethyl)phenoxy]acetamido}-3-hydroxybicyclo[2.2.2]octan-1-yl]acetamide] | < 0.01 µM
O=C(COc1ccc(F)c(F)c1)NC12CCC(NC(=O)COc3ccc(F)c(C(F)(F)F)c3)(CC1)[C@@H](O)C2 [Compound 829, 2-(3,4-difluorophenoxy)-N-[(3S)-4-{2-[4-fluoro-3-(trifluoromethyl)phenoxy]acetamido}-3-hydroxybicyclo[2.2.2]octan-1-yl]acetamide] | < 0.01 µM
O=C(COc1ccc(Cl)cc1)NC12CCC(NC(=O)COc3ccc(F)c(C(F)(F)F)c3)(CC1)[C@@H](O)C2 [Compound 830, 2-(4-chlorophenoxy)-N-[(3S)-4-{2-[4-fluoro-3-(trifluoromethyl)phenoxy]acetamido}-3-hydroxybicyclo[2.2.2]octan-1-yl]acetamide] | < 0.01 µM
O=C(COc1ccc(F)cc1)NC12CCC(NC(=O)COc3ccc(F)c(C(F)(F)F)c3)(CC1)[C@@H](O)C2 [Compound 831, 2-(4-fluorophenoxy)-N-[(3S)-4-{2-[4-fluoro-3-(trifluoromethyl)phenoxy]acetamido}-3-hydroxybicyclo[2.2.2]octan-1-yl]acetamide] | < 0.01 µM
O=C(COc1ccc(Cl)c(F)c1)NC12CCC(NC(=O)COc3ccc(C(F)(F)F)c(F)c3)(CC1)[C@@H](O)C2 [Compound 832, 2-(4-chloro-3-fluorophenoxy)-N-[(3S)-4-{2-[3-fluoro-4-(trifluoromethyl)phenoxy]acetamido}-3-hydroxybicyclo[2.2.2]octan-1-yl]acetamide] | < 0.01 µM
O=C(COc1ccc(F)c(F)c1)NC12CCC(NC(=O)COc3ccc(C(F)(F)F)c(F)c3)(CC1)[C@@H](O)C2 [Compound 833, 2-(3,4-difluorophenoxy)-N-[(3S)-4-{2-[3-fluoro-4-(trifluoromethyl)phenoxy]acetamido}-3-hydroxybicyclo[2.2.2]octan-1-yl]acetamide] | < 0.01 µM
O=C(COc1ccc(Cl)cc1)NC12CCC(NC(=O)COc3ccc(C(F)(F)F)c(F)c3)(CC1)[C@@H](O)C2 [Compound 834, 2-(4-chlorophenoxy)-N-[(3S)-4-{2-[3-fluoro-4-(trifluoromethyl)phenoxy]acetamido}-3-hydroxybicyclo[2.2.2]octan-1-yl]acetamide] | < 0.01 µM
